Experimental findings from patent EP4806891A1 (Kangbaida (Sichuan) Biotechnology Co., Ltd., priority 2023, dated 2025) are described below.

The target of one assay is T1, HEK-Blue-hTLR9 cells (Homo sapiens, UniProt Q9NR96).
T1 construct: expressed in transfected cells; host or cells: HEK-Blue-hTLR9 cells (HEK293-derived reporter line)
T1 sequence (Q9NR96 26-1032): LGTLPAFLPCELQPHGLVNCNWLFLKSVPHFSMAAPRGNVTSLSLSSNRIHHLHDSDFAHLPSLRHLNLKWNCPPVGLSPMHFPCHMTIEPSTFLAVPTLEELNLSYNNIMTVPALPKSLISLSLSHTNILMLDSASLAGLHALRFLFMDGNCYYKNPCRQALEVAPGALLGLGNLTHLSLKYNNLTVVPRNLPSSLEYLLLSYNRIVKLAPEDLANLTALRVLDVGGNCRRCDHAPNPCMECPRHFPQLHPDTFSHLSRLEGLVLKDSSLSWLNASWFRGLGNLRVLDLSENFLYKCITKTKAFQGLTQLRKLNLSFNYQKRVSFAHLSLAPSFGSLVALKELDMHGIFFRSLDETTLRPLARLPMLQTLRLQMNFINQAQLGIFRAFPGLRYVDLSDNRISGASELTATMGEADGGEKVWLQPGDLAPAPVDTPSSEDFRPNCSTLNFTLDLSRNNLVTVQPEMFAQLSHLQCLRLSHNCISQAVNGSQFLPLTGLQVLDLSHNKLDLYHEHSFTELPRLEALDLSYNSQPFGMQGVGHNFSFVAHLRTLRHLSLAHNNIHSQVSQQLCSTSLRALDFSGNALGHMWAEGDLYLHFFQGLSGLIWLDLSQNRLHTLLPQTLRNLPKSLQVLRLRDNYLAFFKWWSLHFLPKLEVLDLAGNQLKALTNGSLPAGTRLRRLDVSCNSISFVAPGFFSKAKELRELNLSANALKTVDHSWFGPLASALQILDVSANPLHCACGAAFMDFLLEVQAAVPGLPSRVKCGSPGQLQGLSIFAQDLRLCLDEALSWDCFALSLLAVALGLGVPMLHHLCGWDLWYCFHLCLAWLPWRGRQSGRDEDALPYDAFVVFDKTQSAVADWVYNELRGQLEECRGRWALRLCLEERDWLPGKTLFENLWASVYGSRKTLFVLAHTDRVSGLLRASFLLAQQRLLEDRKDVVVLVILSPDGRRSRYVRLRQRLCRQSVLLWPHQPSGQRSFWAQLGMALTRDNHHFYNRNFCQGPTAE
As to the kind of experiment: HEK-Blue-hTLR9 cell inhibition assay. Format: cell-based. The conditions noted are these: ODN2006 1 µM, 16 h, OD 620 nm, read-out: TLR9 IC50. Summed up:
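Cells were pre-incubated 4 h, then co-treated 16 h at 37 °C with compound (10 doses, 0.5–10000 nM final) plus R848 (0.8 µM for TLR7, 3 µM for TLR8) or ODN2006 (1 µM, TLR9). Reporter OD620 gave inhibition relative to DMSO blank and agonist-only controls; IC50 came from curve fitting.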

Another assay concerns IL-6. As to the kind of experiment: In vivo inhibition assay of IL-6. The conditions noted are these: Mus musculus, ip; mice, test compound 1 mg/kg by gavage, 25 µg R848 intraperitoneally 1 h later, serum IL-6 2 h later; read-out: IL-6 inhibition rate (intraperitoneal injection after 1 h). Further details: species or system C57BL/6 female mice. How it is done: In vivo inhibition assay of IL-6
Experimental materials: Preparation of compound solutions: R848 was prepared with pure water (sterilized), with a final concentration of 25 µg/100 µL; the test compound was prepared with sodium citrate buffer at pH = 3, with a final concentration of 0.1 mg/mL.
Experimental animals: C57BL/6 female mice were purchased from GemPharmatech, aged 6-8 weeks.
Experimental methods: C57BL/6 female mice were randomly divided into a blank group, control group, and experimental group, with 8 in each group.
Blank group: Blood was collected from the mice after 12 h of fasting.
Control group: The mice were administered sodium citrate buffer at pH = 3 by gavage after 12 hours of fasting, and the remaining procedures were consistent with those of the experimental group.
Experimental group: After fasting for 12 h, the mice were administered with the test compound (1 mg/kg) by gavage, followed by an intraperitoneal injection of 25 µg R848 (purchased from MCE) 1 h later; 2 h later, the eyeballs were removed for blood collection, the serum was allowed to stand at room temperature for 30 min, then centrifuged for 10 min (3000 rpm), the supernatant was collected, and the serum IL-6 concentration was measured using an IL-6 ELISA kit. The IL-6 inhibition rate was calculated based on the serum IL-6 concentrations of the control and experimental groups. Calculation formula: inhibition rate = (C2-C3)/(C2-C1)×100%. • C1: serum IL-6 concentration of the blank group; • C2: serum IL-6 concentration of the control group; • C3: serum IL-6 concentration of the experimental group.
Four additional groups of experiments were performed separately according to the above experimental procedures, and the differences between these four groups and the above experiment were respectively: "25 µg R848 (purchased from MCE) was intraperitoneally injected after 4 h", "25 µg R848 (purchased from MCE) was intraperitoneally injected after 8 h", "25 µg R848 (purchased from MCE) was intraperitoneally injected after 16 h", and "25 µg R848 (purchased from MCE) was intraperitoneally injected after 24 h". Table 2: In vivo inhibition assay of IL-6

In the case of `CN1CC(Cc2nnc([C@]34CN(c5ccc(C#N)n6ncc(F)c56)C[C@@]3(C(F)(F)F)C4)o2)C1` [Compound 30, 3-fluoro-4-((1S,5R)-1-(5-((1-methylazetidin-3-yl)methyl)-1,3,4-oxadiazol-2-yl)-5-(trifluoromethyl)-3-azabicyclo[3.1.0]hexan-3-yl)pyrazolo[1,5-a]pyridine-7-carbonitrile], at HEK-Blue-hTLR9 cells, the half-inhibitory concentration (IC50) (as a rule, the concentration needed to halve the response being measured) is over 1000 nM. The inhibition (in general, the relative decrease from the control value, in per cent) at 1 mg/kg in the assay with IL-6 is over 90%.

In the case of `CN1CCC(c2nnc([C@]34CN(c5ccc(C#N)n6ncc(F)c56)C[C@@]3(C(F)(F)F)C4)o2)CC1` [Compound 57, 3-fluoro-4-((1S,5R)-1-(5-(1-methylpiperidin-4-yl)-1,3,4-oxadiazol-2-yl)-5-(trifluoromethyl)-3-azabicyclo[3.1.0]hexan-3-yl)pyrazolo[1,5-a]pyridine-7-carbonitrile], the IC50 on HEK-Blue-hTLR9 cells was over 1000 nM. The inhibition at 1 mg/kg with IL-6 was over 90%.

`CN1CCC(c2nnc([C@]34CN(c5ccc(C#N)n6nccc56)C[C@@]3(C(F)(F)F)C4)o2)CC1` [Compound 59, 4-((1S,5R)-1-(5-(1-methylpiperidin-4-yl)-1,3,4-oxadiazol-2-yl)-5-(trifluoromethyl)-3-azabicyclo[3.1.0]hexan-3-yl)pyrazolo[1,5-a]pyridine-7-carbonitrile]: the IC50 on HEK-Blue-hTLR9 cells is over 1000 nM. Further, in the assay on IL-6, the inhibition at 1 mg/kg was over 80%.

Turning to `CN1CCC(c2nnc([C@]34CN(c5ccc(OC(F)(F)F)c6ncccc56)C[C@@]3(C(F)(F)F)C4)o2)CC1` [Compound 64, 2-(1-methylpiperidin-4-yl)-5-((1S,5R)-5-(trifluoromethyl)-3-(8-(trifluoromethoxy)quinolin-5-yl)-3-azabicyclo[3.1.0]hexan-1-yl)-1,3,4-oxadiazole], the inhibition at 1 mg/kg in the assay with IL-6 was over 70%.

With `CN1CC(Cc2nnc([C@]34CN(c5ccc(C(F)(F)F)c6ncccc56)C[C@@]3(C(F)(F)F)C4)o2)C1` [Compound 95, 2-((1-methylazetidin-3-yl)methyl)-5-((1S,5R)-5-(trifluoromethyl)-3-(8-(trifluoromethyl)quinolin-5-yl)-3-azabicyclo[3.1.0]hexan-1-yl)-1,3,4-oxadiazole], the half-maximal inhibitory concentration (IC50) at HEK-Blue-hTLR9 cells is over 1000 nM. For the same molecule, the inhibition at 1 mg/kg in the assay with IL-6 was over 90%.

For `FC(F)(F)Oc1ccc(N2C[C@]3(c4nnc(C5(F)CCNCC5)o4)C[C@]3(C(F)(F)F)C2)c2cccnc12` [Compound 96, 2-(4-fluoropiperidin-4-yl)-5-((1S,5R)-3-(8-(trifluoromethoxy)quinolin-5-yl)-5-(trifluoromethyl)-3-azabicyclo[3.1.0]hexan-1-yl)-1,3,4-oxadiazole], at HEK-Blue-hTLR9 cells, the IC50 is over 1000 nM.

`CN1CCC(Oc2nnc([C@]34CN(c5ccc(C#N)c6ncnn56)C[C@@]3(C(F)(F)F)C4)o2)CC1` [Compound 97, 5-((1S,5R)-1-(5-((1-methylpiperidin-4-yl)oxy)-1,3,4-oxadiazol-2-yl)-5-(trifluoromethyl)-3-azabicyclo[3.1.0]hexan-3-yl)-[1,2,4]triazolo[1,5-a]pyridine-8-carbonitrile]: the inhibition at 1 mg/kg in the assay with IL-6 is over 90%.
